Series [1] has as its target T1, CYP1A2 (Homo sapiens, UniProt P05177).
T1 construct: Mixed human liver microsomes from 150 donors; tissue Corning 452117; host or cells: pooled human liver microsomes (150 donors)
T1 sequence (P05177 1-516): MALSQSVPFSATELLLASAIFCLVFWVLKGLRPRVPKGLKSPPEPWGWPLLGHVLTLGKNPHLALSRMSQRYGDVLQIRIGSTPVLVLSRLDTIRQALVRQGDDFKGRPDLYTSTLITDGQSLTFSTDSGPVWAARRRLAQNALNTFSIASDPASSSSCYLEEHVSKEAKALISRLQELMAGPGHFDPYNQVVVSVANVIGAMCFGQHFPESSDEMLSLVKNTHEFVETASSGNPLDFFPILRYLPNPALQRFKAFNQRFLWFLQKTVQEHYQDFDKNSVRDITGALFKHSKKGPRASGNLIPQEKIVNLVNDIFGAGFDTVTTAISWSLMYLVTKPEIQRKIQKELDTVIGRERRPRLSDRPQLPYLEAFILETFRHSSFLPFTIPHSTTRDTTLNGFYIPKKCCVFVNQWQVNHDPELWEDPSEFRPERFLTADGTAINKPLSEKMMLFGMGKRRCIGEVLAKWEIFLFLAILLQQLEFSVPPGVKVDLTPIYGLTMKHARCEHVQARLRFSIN
As to the kind of experiment: CYP inhibition in mixed human liver microsomes, CYP1A2 (phenacetin). The class given is in vitro ADME. On the procedure:
(§1) Mixed human liver microsomes from 150 donors (purchased from Corning, catalog number 452117) were used to evaluate the representative substrate metabolic responses of the five main human CYP subtypes (CYP1A2, CYP2C9, CYP2C19, CYP2D6 and CYP3A4/5). The influence of different concentrations of test compounds on the metabolic responses of phenacetin (CYP1A2), diclofenac sodium (CYP2C9), S-mephenytoin (CYP2C19), bufurolol hydrochloride (2D6) and midazolam (CYP3A4/5) was determined by liquid chromatography tandem mass spectrometry (LC/MS/MS).
(§2) 200 μL of the reaction system (100 mmol/L phosphate buffer, pH 7.4, containing 0.3% DMSO, 0.6% acetonitrile and 0.1% methanol by volume respectively) with 30 µM phenacetin, 10 μM diclofenac sodium, 35 μM S-mephenytoin, 5 μM bufurolol hydrochloride, 3 μM midazolam, 1 mM NADPH, test compound (at a concentration of 0.1, 0.3, 1, 3, 10 and 30 μmol/L respectively) or positive compound or blank control and mixed human liver microsomes (0.2 mg/mL) was incubated at 37° C. for 5 minutes. […]
(§3) The peak area was calculated based on the chromatograms. The residual activity ratio (%) was calculated using the following equation: […]
(§4) The CYP median inhibitory concentration (IC50) was calculated by Excel XLfit 5.3.1.3.

Series [2] can be described thus: In vitro metabolic stability in rat liver microsomes. To be noted: rat liver microsomes (male Wistar Han), NADPH, 37° C.; read-out: Intrinsic clearance rate. The class given is in vitro ADME. As for the experimental part:
The concentration of the compound in the reaction system was determined by LC/MS/MS, so as to calculate the intrinsic clearance rate of the test compound and to evaluate the in vitro metabolic stability in rat liver microsomes.
222.5 μL, 1.1236 mg/mL of a mixed solution of rat liver microsomes (male Wistar Han strain, purchased from Corning, catalog number 452511) and 25 μL, 10 mM of NADPH were added into the incubation plate. The mixture was mixed by vortexing for 10 seconds. The plate was incubated in a water bath at 37° C. for 8 minutes. 2.5 μL, 100 μM of the test compound or positive control was added to the incubation plate to start the reaction. The mixture was mixed by vortexing for 12 seconds, and incubated in a water bath at 37° C. The reaction was stopped by transferring 20 μL of the incubation system to a stop plate containing 100 μL of cold stop solution at 0.5, 5, 10, 15, 20 and 30 minutes. The mixture was mixed by vortexing for 2 minutes. The stop plate was centrifuged at 4000 rpm for 20 minutes, then left to stand at 4° C. for 30 minutes, and then centrifuged at 4000 rpm for 20 minutes. 40 μL of the supernatant of each compound was transferred to a 96-well injection plate, and 160 μL of pure water was added to dilute the samples.
The obtained samples were quantified by ion chromatogram, and the residual rate was calculated according to the peak area of the test compounds or positive control. The slope k was determined by linear regression of the natural logarithm of the residual rate to the incubation time by using Microsoft Excel.
The in vitro half-life (in vitro t1/2) was calculated from the slope: in vitro t1/2=−(0.693/k)
The following equation was used to convert in vitro half-life into intrinsic clearance rate (in vitro CLint, μL/min/mg protein):
in vitro CLint=(0.693/t1/2)×(incubation volume (L)/protein amount (mg))
On the technique in general: Liver microsomes are vesicles of endoplasmic reticulum, rich in cytochrome P450 enzymes.

Series [3] relates to CYP3A4/5. As to the kind of experiment: CYP inhibition in mixed human liver microsomes, CYP3A4/5 (midazolam). The series is classed as in vitro ADME. As to conditions: pH 7.4, mixed human liver microsomes 0.2 mg/mL, read-out: Median inhibitory concentration (IC50) CYP 3A4/5. On the procedure:
as §1, §2, §3, §4

The nature of series [4]: In vivo pharmacokinetics in rats (gavage). The arrangement: species or system SD rats. To be noted: original drug, rat, 5 mpk. On the procedure: Rats were used as the test animals. The plasma drug concentration at different times after the rats were given the compounds of the invention by gavage was determined by using the LC/MS/MS method. The in vivo pharmacokinetic behavior of the compounds of the present invention in rats was studied, and pharmacokinetic characteristics thereof were evaluated.
Test animals: 3 healthy, 6-8 weeks old male SD rats in each group
A certain amount of drug was weighed, and 0.5% by mass of hypromellose, 0.1% by volume of Tween 80 and 99.4% by volume of water were added thereto to formulate a white suspension at 1 mg/mL.
SD rats were fasted overnight, then the drug was administered by gavage. The dosage of reference 1 was 7.5 mg/kg, and the dosage of Example 1 was 5 mg/kg.
Rats were administered the compounds of the present invention by gavage. At 0.25, 0.5, 1, 2, 4, 8 and 24 hours after administration, 0.2 mL of blood was collected from the jugular vein and placed in a test tube containing EDTA-K2. The tube was centrifuged at 4° C., 4000 rpm for 5 minutes to separate the plasma, which was stored at −75° C.
Determination of the content of the test compounds in rat plasma after administration of different concentrations of drugs by gavage: 50 μL of rat plasma at each time after administration was taken, and 200 μL of a solution of the internal standard dexamethasone in acetonitrile (50 ng/mL). The mixture was mixed by vortexing for 30 seconds, centrifuged at 4° C., 4700 rpm for 15 minutes. The supernatant of the plasma samples were collected and diluted three times with water, and 2.0 μL was taken for the LC/MS/MS analysis.

Here are results for 1 compound from US20220380385A1, “PYRIMIDINE FIVE-MEMBERED NITROGEN HETEROCYCLIC DERIVATIVE, PREPARATION METHOD THEREOF AND PHARMACEUTICAL USE THEREOF” (TUOJIE BIOTECH(SHANGHAI) CO., LTD., priority 2019, published 2022).

As usually defined, the AUC is the area under the concentration-time curve, a measure of exposure. Broadly, the Cmax is the highest concentration seen after dosing. In turn, `[2H]C([2H])([2H])Nc1nccc(Sc2c(C)nc(N3CCC4(CC3)Cc3ncccc3[C@H]4N)n3ccnc23)c1Cl` [Example 3, (S)-1′-(8-((3-Chloro-2-((methyl-d3)amino)pyridin-4-yl)thio)-7-methylimidazo[1,2-c]pyrimidin-5-yl)-5,7-dihydrospiro[cyclopenta[b]pyridine-6,4′-piperidin]-5-amine] displayed an IC50 in series [1] of 14.7 µM. Besides, in series [2], the microsomal CLint at 1 µM is < 3 µL/min/mg. In series [3], the IC50 at 5 min is > 20 µM. For the same compound, the AUC in series [4] (male, SD, plasma, po, 5 mg/kg, read-out: Area under curve AUC) was determined as 3820 ng·h/mL. Moreover, the Cmax in series [4] (male, SD, plasma, po, 5 mg/kg, read-out: Maximum blood conc. Cmax) was determined as 445 ng/mL. The “Area under curve of unit dose AUC/D” value in series [4] was 764 ng*h/mL per mg/kg.
